Measured values from ChEMBL document CHEMBL1155905, “Carbonic anhydrase inhibitors. Interaction of the antitumor sulfamate EMD 486019 with twelve mammalian carbonic anhydrase isoforms: Kinetic and X-ray crystallographic studies” (Bioorg Med Chem Lett, 2008).

Experiments:
[1] = molecular target: Carbonic anhydrase 6 (Homo sapiens, UniProt P23280)
Description: Inhibition of human cloned CA6 by stopped-flow CO2 hydration method

[2] = molecular target: Carbonic anhydrase 4 (Homo sapiens, UniProt P22748)
[3] = molecular target: Carbonic anhydrase 12 (Homo sapiens, UniProt O43570)
Description: Inhibition of human cloned CA12 catalytic domain by stopped-flow CO2 hydration method

[4] = molecular target: Carbonic anhydrase 5A, mitochondrial (Homo sapiens, UniProt P35218)
[5] = molecular target: Carbonic anhydrase 3 (Homo sapiens, UniProt P07451)
Description: Inhibition of human cloned CA3 by stopped-flow CO2 hydration method

[6] = molecular target: Carbonic anhydrase 14 (Homo sapiens, UniProt Q9ULX7)
[7] = molecular target: Carbonic anhydrase 13 (Mus musculus, UniProt Q9D6N1)
Description: Inhibition of mouse CA13 by stopped-flow CO2 hydration method

[8] = molecular target: Carbonic anhydrase 7 (Homo sapiens, UniProt P43166); assay: Inhibition of human cloned CA7 by stopped-flow CO2 hydration method
[9] = molecular target: Carbonic anhydrase 1 (Homo sapiens, UniProt P00915)
Description: Inhibition of human cloned CA1 by stopped-flow CO2 hydration method

[10] = molecular target: Carbonic anhydrase 9 (Homo sapiens, UniProt Q16790)
Description: Inhibition of human cloned CA9 catalytic domain by stopped-flow CO2 hydration method

[11] = molecular target: Carbonic anhydrase 5B, mitochondrial (Homo sapiens, UniProt Q9Y2D0)
Chain of Carbonic anhydrase 5B, mitochondrial (Q9Y2D0 whole entry): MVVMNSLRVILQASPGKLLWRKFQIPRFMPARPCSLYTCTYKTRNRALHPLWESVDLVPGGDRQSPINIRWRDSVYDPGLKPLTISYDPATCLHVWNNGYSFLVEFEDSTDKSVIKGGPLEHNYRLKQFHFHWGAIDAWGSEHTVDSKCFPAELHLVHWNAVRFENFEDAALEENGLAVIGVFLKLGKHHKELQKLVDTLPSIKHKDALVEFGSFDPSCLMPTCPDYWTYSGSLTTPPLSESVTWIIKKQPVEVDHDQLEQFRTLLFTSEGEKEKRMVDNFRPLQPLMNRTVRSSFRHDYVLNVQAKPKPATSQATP

Chain of Carbonic anhydrase 3 (P07451 whole entry): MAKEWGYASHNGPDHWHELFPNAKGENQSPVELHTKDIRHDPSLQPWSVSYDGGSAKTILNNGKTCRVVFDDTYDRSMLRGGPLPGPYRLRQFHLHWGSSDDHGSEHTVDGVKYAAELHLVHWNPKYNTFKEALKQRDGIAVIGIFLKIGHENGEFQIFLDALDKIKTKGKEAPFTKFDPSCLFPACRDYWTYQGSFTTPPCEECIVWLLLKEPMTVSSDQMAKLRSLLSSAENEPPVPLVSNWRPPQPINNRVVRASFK
Chain of Carbonic anhydrase 5A, mitochondrial (P35218 whole entry): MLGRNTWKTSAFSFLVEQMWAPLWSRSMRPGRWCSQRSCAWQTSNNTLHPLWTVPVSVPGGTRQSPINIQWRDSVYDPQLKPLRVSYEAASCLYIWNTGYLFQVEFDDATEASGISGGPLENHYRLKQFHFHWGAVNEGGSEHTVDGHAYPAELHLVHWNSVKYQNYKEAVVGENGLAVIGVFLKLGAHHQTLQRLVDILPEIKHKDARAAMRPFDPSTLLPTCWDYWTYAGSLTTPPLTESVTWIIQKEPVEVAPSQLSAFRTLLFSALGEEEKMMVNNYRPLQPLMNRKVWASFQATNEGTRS
Chain of Carbonic anhydrase 12 (O43570 whole entry): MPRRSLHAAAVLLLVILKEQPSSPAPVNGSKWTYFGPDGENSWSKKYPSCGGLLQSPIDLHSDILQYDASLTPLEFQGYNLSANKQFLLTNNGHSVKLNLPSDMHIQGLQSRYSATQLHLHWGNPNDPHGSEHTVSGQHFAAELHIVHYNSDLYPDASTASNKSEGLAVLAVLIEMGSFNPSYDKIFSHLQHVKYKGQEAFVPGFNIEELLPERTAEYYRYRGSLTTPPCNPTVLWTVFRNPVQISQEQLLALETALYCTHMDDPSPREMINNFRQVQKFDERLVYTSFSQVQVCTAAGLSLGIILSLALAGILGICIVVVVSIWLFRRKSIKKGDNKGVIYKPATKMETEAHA
Chain of Carbonic anhydrase 6 (P23280 whole entry): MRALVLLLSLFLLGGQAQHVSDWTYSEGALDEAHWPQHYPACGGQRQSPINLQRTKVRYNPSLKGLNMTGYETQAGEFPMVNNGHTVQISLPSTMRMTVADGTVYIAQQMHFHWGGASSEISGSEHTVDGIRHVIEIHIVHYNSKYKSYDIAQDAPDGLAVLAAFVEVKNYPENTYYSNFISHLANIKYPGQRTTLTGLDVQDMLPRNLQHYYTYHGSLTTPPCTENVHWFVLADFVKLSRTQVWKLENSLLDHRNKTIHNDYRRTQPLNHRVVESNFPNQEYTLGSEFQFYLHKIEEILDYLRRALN
Chain of Carbonic anhydrase 4 (P22748 whole entry): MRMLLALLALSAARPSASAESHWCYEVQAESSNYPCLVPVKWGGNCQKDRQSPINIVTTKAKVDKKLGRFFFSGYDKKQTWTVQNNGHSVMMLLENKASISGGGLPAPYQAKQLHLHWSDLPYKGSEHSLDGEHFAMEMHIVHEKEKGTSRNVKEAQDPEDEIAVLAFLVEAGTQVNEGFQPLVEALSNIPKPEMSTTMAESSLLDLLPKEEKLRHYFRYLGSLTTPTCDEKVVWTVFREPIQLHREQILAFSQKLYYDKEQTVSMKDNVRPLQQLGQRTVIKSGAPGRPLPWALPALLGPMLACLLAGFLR
Chain of Carbonic anhydrase 1 (P00915 whole entry): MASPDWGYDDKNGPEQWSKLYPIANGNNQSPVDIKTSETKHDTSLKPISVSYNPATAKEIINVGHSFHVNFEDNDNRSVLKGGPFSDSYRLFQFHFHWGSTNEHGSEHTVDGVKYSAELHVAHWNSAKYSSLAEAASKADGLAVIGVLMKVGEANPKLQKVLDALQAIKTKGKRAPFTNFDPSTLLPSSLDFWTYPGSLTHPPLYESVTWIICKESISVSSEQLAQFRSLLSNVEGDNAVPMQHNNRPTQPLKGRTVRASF
Chain of Carbonic anhydrase 13 (Q9D6N1 whole entry): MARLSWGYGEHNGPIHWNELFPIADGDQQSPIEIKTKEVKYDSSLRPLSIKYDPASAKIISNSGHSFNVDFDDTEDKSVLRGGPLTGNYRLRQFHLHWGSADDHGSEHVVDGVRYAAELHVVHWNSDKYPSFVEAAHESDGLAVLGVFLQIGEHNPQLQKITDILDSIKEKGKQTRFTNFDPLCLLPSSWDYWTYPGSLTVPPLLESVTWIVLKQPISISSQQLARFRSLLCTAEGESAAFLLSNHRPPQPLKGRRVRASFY
Chain of Carbonic anhydrase 14 (Q9ULX7 whole entry): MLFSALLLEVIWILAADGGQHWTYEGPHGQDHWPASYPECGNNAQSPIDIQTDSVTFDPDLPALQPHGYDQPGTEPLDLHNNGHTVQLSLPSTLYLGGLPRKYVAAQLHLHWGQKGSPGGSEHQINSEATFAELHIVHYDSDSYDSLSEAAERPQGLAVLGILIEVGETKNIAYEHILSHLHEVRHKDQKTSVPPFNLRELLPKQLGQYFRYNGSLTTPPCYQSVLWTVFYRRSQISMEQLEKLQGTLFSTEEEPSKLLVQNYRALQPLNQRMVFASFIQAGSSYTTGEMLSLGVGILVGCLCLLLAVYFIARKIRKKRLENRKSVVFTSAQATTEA
Chain of Carbonic anhydrase 7 (P43166 whole entry): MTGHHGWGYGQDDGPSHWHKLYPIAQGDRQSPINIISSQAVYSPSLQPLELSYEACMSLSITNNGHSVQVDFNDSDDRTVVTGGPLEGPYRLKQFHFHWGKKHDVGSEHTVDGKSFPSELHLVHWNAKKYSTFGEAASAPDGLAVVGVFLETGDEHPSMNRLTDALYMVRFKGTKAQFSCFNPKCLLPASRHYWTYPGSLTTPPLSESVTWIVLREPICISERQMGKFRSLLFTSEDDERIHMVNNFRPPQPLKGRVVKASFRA

Row | SMILES | Ki [1] [nM] | Ki [2] [nM] | Ki [3] [nM] | Ki [4] [nM] | Ki [5] [nM] | Ki [6] [nM] | Ki [7] [nM] | Ki [8] [nM] | Ki [9] [nM] | Ki [10] [nM] | Ki [11] [nM]
1 | NS(=O)(=O)Oc1ccc2c3c(c(=O)oc2c1)CCCCC3 [IROSUSTAT] | 653 | 24 | 12 | 765 | 700000 | 755 | 1050 | 23 | 3450 | 34 | 720
2 | NS(=O)(=O)Oc1ccc2c(c1)S(=O)(=O)C(CC1CCCCCC1)=C2 | 654 | 842 | 13 | 682 | 740000 | 13 | 66 | – | 3600 | 18 | 18
